The results in this text go back to PubChem BioAssay (NCI).

Some test systems named below: HCC-2998 colon; UO-31 renal; M14 melanoma; A498 renal; NCI-H23 lung; SK-OV-3 ovarian; LOX IMVI melanoma; UACC-257 melanoma; COLO 205 colon; OVCAR-8 ovarian.
Common to all, as to experiment: NCI-60 cell line screen, 48 h

Where “and” joins values, the source holds several entries; their conditions need not be identical. Equal entries are not always repeated.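 96-well plates; 48 h exposure; 5 concentrations. Endpoints by linear interpolation between flanking doses. Not reached: highest tested concentration assigned. GI50 marks 50% less growth. The concentration for full growth arrest is given as TGI.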 Where only a bound is given, the exact number is not on record here.

In the case of `COc1cc(/C=C2/C(=O)N(C(=O)OCC(C)C)C(Cc3cc(OC)c(OC)c(C)c3OC)C(=O)N2Cc2ccccc2)c(OC)c(C)c1OC` (stereo not given), the TGI with HCC-2998 colon, in the assay on UO-31 renal, in the assay with M14 melanoma, in the assay on A498 renal, with NCI-H23 lung and in the assay on SK-OV-3 ovarian was above 100 µM throughout. For the same compound, the TGI with LOX IMVI melanoma, with UACC-257 melanoma, in the assay on COLO 205 colon and in the assay with OVCAR-8 ovarian was above 100 µM in each case.

With `CC(C)(C)OC(=O)N1CCN(CCn2cc(C(F)(F)F)c3c(Cl)ncnc32)CC1`, the GI50 in the assay with HCC-2998 colon is 2.05 µM; in the assay on UO-31 renal it was 11.6 µM; with M14 melanoma, 1.77 µM; in the assay with A498 renal it was 18.2 µM; with NCI-H23 lung it was 2 µM; in the assay with SK-OV-3 ovarian it was 16.7 µM. The GI50 in the assay with LOX IMVI melanoma is 1.73 µM; in the assay on UACC-257 melanoma, 3.31 µM; in the assay with COLO 205 colon, 18.4 µM; with OVCAR-8 ovarian, 2.06 µM. The TGI with HCC-2998 colon came to 4.53 µM; in the assay on UO-31 renal, 24.4 µM; with M14 melanoma it was 3.49 µM; in the assay on A498 renal, 32.7 µM; in the assay with NCI-H23 lung it was 4.32 µM; in the assay with SK-OV-3 ovarian, 30.7 µM. Moreover, the TGI was determined as 3.24 µM in the assay with LOX IMVI melanoma, 10.4 µM with UACC-257 melanoma, 37.9 µM with COLO 205 colon and 3.76 µM with OVCAR-8 ovarian.

For the compound `Nc1c(C(=O)c2cccc(-c3ccncc3)c2)cnn1-c1ccc(F)cc1F`, the GI50 in the assay on HCC-2998 colon was above 21.3 µM; in the assay on UO-31 renal it was 8.96 µM; with M14 melanoma, 6.58 µM; with A498 renal, 4.65 µM; in the assay with NCI-H23 lung, 10.7 µM; in the assay with SK-OV-3 ovarian, 19.8 µM. The GI50 in the assay with LOX IMVI melanoma is 14.3 µM; in the assay on UACC-257 melanoma, 9.47 µM; in the assay on COLO 205 colon it was 2.09 µM; in the assay with OVCAR-8 ovarian it was 18.3 µM. Besides, the TGI in the assay with HCC-2998 colon, in the assay on UO-31 renal, in the assay on M14 melanoma, in the assay on A498 renal, in the assay with NCI-H23 lung and in the assay on SK-OV-3 ovarian was above 25 µM throughout. The TGI is above 25 µM in the assay on LOX IMVI melanoma, above 25 µM with UACC-257 melanoma, above 21.4 µM in the assay with COLO 205 colon and above 25 µM with OVCAR-8 ovarian.

As for `c1ccc2[nH]c(-c3ccc(-c4nccc5c4[nH]c4ccccc45)cc3)nc2c1`, the GI50 was 3.96 µM in the assay on HCC-2998 colon; 1.69 µM with UO-31 renal; 1.79 µM with M14 melanoma; 11.4 µM in the assay with A498 renal; 3.47 µM in the assay on NCI-H23 lung; 4.37 µM in the assay on SK-OV-3 ovarian. The GI50 is 1.83 µM in the assay on UACC-257 melanoma, 2.32 µM in the assay with COLO 205 colon and 3.3 µM in the assay on OVCAR-8 ovarian. Further, the TGI was 15.9 µM in the assay with HCC-2998 colon; 3.27 µM in the assay with UO-31 renal; 3.57 µM in the assay on M14 melanoma; 25.5 µM with A498 renal; 17.7 µM in the assay on NCI-H23 lung; 15.9 µM with SK-OV-3 ovarian. Further, the TGI came out at 3.5 µM with UACC-257 melanoma, 6.22 µM in the assay on COLO 205 colon and 13.5 µM in the assay with OVCAR-8 ovarian.

`Cc1c(C(N)=O)sc2c1C(=O)N(Cc1ccccc1)C1=NN=C(c3ccc(Cl)cc3)CN12`: the GI50 with HCC-2998 colon was 3.97 µM; in the assay with UO-31 renal it was 2.24 µM; in the assay with M14 melanoma, 2.38 µM; in the assay on A498 renal, 2.88 µM; in the assay with NCI-H23 lung, 3.86 µM; with SK-OV-3 ovarian it was 3.71 µM. Further, the GI50 is 1.62 µM in the assay on LOX IMVI melanoma, 3.75 µM in the assay on UACC-257 melanoma, 4.42 µM in the assay with COLO 205 colon and 2.97 µM in the assay with OVCAR-8 ovarian. Also, the TGI amounted to 17 µM in the assay on HCC-2998 colon; 15.3 µM in the assay with UO-31 renal; 6.75 µM in the assay on M14 melanoma; 12.7 µM in the assay on A498 renal; 19.4 µM in the assay with NCI-H23 lung; 15.8 µM with SK-OV-3 ovarian. In addition, the TGI turned out to be 10.8 µM with LOX IMVI melanoma, 16.5 µM in the assay on UACC-257 melanoma, 16.9 µM with COLO 205 colon and 15.2 µM with OVCAR-8 ovarian.

With `COc1ccc(C2=CC(c3ccc4c(c3)OCO4)c3c(c4ccccc4oc3=O)O2)cc1OC` (stereo not given), the TGI was above 27.2 µM in the assay with HCC-2998 colon; above 100 µM in the assay with UO-31 renal; above 100 µM in the assay on M14 melanoma; above 100 µM in the assay with A498 renal; above 100 µM in the assay on NCI-H23 lung; above 100 µM in the assay on SK-OV-3 ovarian. Moreover, the TGI in the assay on LOX IMVI melanoma is above 100 µM; in the assay with UACC-257 melanoma, above 100 µM; in the assay with COLO 205 colon, above 22.6 µM; in the assay with OVCAR-8 ovarian it was above 100 µM.

With `Cc1cc(O)c(C(C)C)cc1S(=O)(=O)O` (tested in a mixture with another compound), the GI50 is 0.229 µM in the assay with HCC-2998 colon; 0.382 µM with UO-31 renal; 0.296 µM in the assay with M14 melanoma; 0.244 µM with A498 renal; 0.427 µM with NCI-H23 lung; 0.27 µM in the assay on SK-OV-3 ovarian. The GI50 in the assay on LOX IMVI melanoma was 0.483 µM; with UACC-257 melanoma it was 0.963 µM; in the assay on COLO 205 colon it was 0.224 µM; in the assay on OVCAR-8 ovarian, 0.335 µM. The TGI was 2.16 µM in the assay with A498 renal; > 100 µM and 10.4 µM in the assay on NCI-H23 lung.

On to `C=C(C)C(=O)Nc1ccc(NC(C)C)cc1`, for which the GI50 in the assay on HCC-2998 colon, with UO-31 renal, in the assay on M14 melanoma, with A498 renal, in the assay with NCI-H23 lung and with SK-OV-3 ovarian was above 100 µM each time. Further, the GI50 in the assay on LOX IMVI melanoma, in the assay with UACC-257 melanoma, in the assay on COLO 205 colon and in the assay with OVCAR-8 ovarian was above 100 µM throughout. For the same compound, the TGI with HCC-2998 colon, in the assay with UO-31 renal, in the assay with M14 melanoma, with A498 renal, with NCI-H23 lung and with SK-OV-3 ovarian was above 100 µM throughout. In addition, the TGI with LOX IMVI melanoma, with UACC-257 melanoma, in the assay on COLO 205 colon and in the assay with OVCAR-8 ovarian was above 100 µM each time.
